Test results: US20240101546A1, “HETEROARYL-ACETYLENES, PHARMACEUTICAL COMPOSITIONS THEREOF, AND THEIR THERAPEUTIC APPLICATIONS” (Eubulus Biotherapeutics Inc., priority 2020, published 2024)

Tested on: lung cancer cell line NCI-H82
Experiment: Cell proliferation assay, NCI-H82 (CELL-TITER GLO)
Assay type: cell-based
Conditions: Homo sapiens, NCI-H82, 72 h, NCI-H82 cells, 72 h incubation, cell viability by CELL-TITER GLO, top concentration 1 μM; read-out: EC50, Inhibition of NCl-H82 Cell Proliferation
How it was run: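 NCI-H82 cells, 1,000 per well in RPMI1640, were treated after overnight plating with a 3-fold dilution series from 1 μM. Viability read by CellTiter-Glo luminescence after 72 h. EC50 derived from the curves.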

C#Cc1nc(NC(=O)NCc2ccc(-c3cc(N4CCCC4)ccn3)cc2)cs1 [Compound A173, 1-(2-Ethynylthiazol-4-yl)-3-(4-(4-(pyrrolidin-1-yl)pyridin-2-yl)benzyl)urea] and C#Cc1nc(NC(=O)NCc2ccc(-c3ccnc(N4CCCC4)c3)cc2)cs1 [Compound A175, 1-(2-Ethynylthiazol-4-yl)-3-(4-(2-(pyrrolidin-1-yl)pyridin-4-yl)benzyl)urea] cannot be ordered by EC50: 200 to 1000 nM for the first, no more than 200 nM for the second.

C#Cc1nc(NC(=O)NCc2ccc(-c3cncc(N4CCCC4)c3)cc2)cs1 [Compound A174, 1-(2-Ethynylthiazol-4-yl)-3-(4-(5-(pyrrolidin-1-yl)pyridin-3-yl)benzyl)urea] and C#Cc1nc(NC(=O)NCc2ccc(-c3cccc(N4CCCC4)n3)cc2)cs1 [Compound A176, 1-(2-Ethynylthiazol-4-yl)-3-(4-(6-(pyrrolidin-1-yl)pyridin-2-yl)benzyl)urea] cannot be ordered by EC50: no more than 200 nM for the first, no more than 200 nM for the second.

C#Cc1nc(NC(=O)NCc2ccc(-c3cccc4ncsc34)cc2C#N)cs1 [Compound A177, 1-(4-(Benzo[d]thiazol-7-yl)-2-cyanobenzyl)-3-(2-ethynylthiazol-4-yl)urea] and C#Cc1nc(NC(=O)NCc2ccc(-c3cccc4ncsc34)cn2)cs1 [Compound A179, 1-((5-(Benzo[d]thiazol-7-yl)pyridin-2-yl)methyl)-3-(2-ethynylthiazol-4-yl)urea] cannot be ordered by EC50: 200 to 1000 nM for the first, no more than 200 nM for the second.

C#Cc1nc(NC(=O)NCc2ccc(-c3cccc(C4(C#N)CC4)c3)nc2)cs1 [Compound A180, 1-((6-(3-(1-Cyanocyclopropyl)phenyl)pyridin-3-yl)methyl)-3-(2-ethynylthiazol-4-yl)urea] and C#Cc1nc(NC(=O)N[C@@H](CO)c2ccc(-c3cccc(C4(C#N)CC4)c3)cc2)cs1 [Compound A187, (R)-1-(1-(3′-(1-Cyanocyclopropyl)-[1,1′-biphenyl]-4-yl)-2-hydroxyethyl)-3-(2-ethynylthiazol-4-yl)urea] cannot be ordered by EC50: no more than 200 nM for the first, no more than 200 nM for the second.

C#Cc1nc(NC(=O)N[C@@H](CO)c2ccc(-c3cccc(N4CCC(F)(F)C4)c3)cc2)cs1 [Compound A181, (R)-1-(1-(3′-(3,3-Difluoropyrrolidin-1-yl)-[1,1′-biphenyl]-4-yl)-2-hydroxyethyl)-3-(2-ethynylthiazol-4-yl)urea] and C#Cc1nc(NC(=O)N[C@@H](CO)c2ccc(-c3cccc(S(C)(=O)=O)c3)cc2)cs1 [Compound A186, (R)-1-(2-Ethynylthiazol-4-yl)-3-(2-hydroxy-1-(3′-(methylsulfonyl)-[1,1′-biphenyl]-4-yl)ethyl)urea] cannot be ordered by EC50: no more than 200 nM for the first, no more than 200 nM for the second.

C#Cc1nc(NC(=O)N[C@@H](CO)c2ccc(C3CCCCC3)cc2)cs1 [Compound A182, (R)-1-(1-(4-Cyclohexylphenyl)-2-hydroxyethyl)-3-(2-ethynylthiazol-4-yl)urea] and C#Cc1nc(NC(=O)N[C@@H](CO)c2ccc(C3CCN(C)CC3)cc2)cs1 [Compound A184, (R)-1-(2-Ethynylthiazol-4-yl)-3-(2-hydroxy-1-(4-(1-methylpiperidin-4-yl)phenyl)-ethyl)urea] cannot be ordered by EC50: no more than 200 nM for the first, 200 to 1000 nM for the second.

C#Cc1nc(NC(=O)N[C@@H](CO)c2ccc(C3=CCCCC3)cc2)cs1 [Compound A183, (R)-1-(2-Ethynylthiazol-4-yl)-3-(2-hydroxy-1-(2′,3′,4′,5′-tetrahydro-[1,1′-biphenyl]-4-yl)ethyl)urea] and C#Cc1nc(NC(=O)N[C@@H](CO)c2ccc(C3=CCN(C)CC3)cc2)cs1 [Compound A185, (R)-1-(2-Ethynylthiazol-4-yl)-3-(2-hydroxy-1-(4-(1-methyl-1,2,3,6-tetrahydro-pyridin-4-yl)phenyl)ethyl)urea] cannot be ordered by EC50: no more than 200 nM for the first, 200 to 1000 nM for the second.

Same assay, conditions: NCI-H82 cells, 72 h incubation, cell viability by CELL-TITER GLO, top concentration 1 μM; read-out: EC50, Inhibition of NCl-H82 Cell Proliferation

C#Cc1nc(NC(=O)NCc2ccc(-c3cccc4ncsc34)cc2C#N)cs1 [Compound A178, 1-(4-(Benzo[d]thiazol-7-yl)-2-cyanobenzyl)-3-(2-ethynylthiazol-4-yl)urea] showed an EC50 of no more than 200 nM.
